Read-outs that look alike come from different tables or passages of the source.
Columns and labels:
Type in all cases: cell-based, human
A2780 (ovary) cells = experiment: MTT growth inhibition assay (72 h)
Description: (§1) Each BBQ analogue, 2-14 was screened for their growth inhibition ability (GI50) in a broad panel of cancer cell lines and a non-cancer breast cell line (MCF10A), using the MTT growth inhibition assay (Table 1) ([Baker et al., 2021b]). The cancer panel comprised HT29 (colorectal), U87 (brain), SJ-G2 (brain), A2780 (ovary), Du145 (prostate), BE2-C (neuronal), MIA (pancreas), H460 (lung, ER+), A431 (vulva, ER+ (estrogen receptor positive)), and a wide selection of breast cancer cell lines with varying receptor status including MCF-7 (ER + luminal A), T47D (ER/PR+ (progesterone receptor positive)luminal A), ZR-75-1 (ER/PR + luminal A), BT-474 (ER/PR/HER2+ luminal B), SKBR-3 (HER2+), MDA-MB-468, BT20, and MDA-MB-231 (basal, triple negative (TN) for ER, PR, and HER2).
(§2) Stock solutions were prepared as follows and stored as 20 mM DMSO solutions at −20 °C. All cell lines were cultured in a humidified atmosphere 5% CO2 at 37 °C. The cancer cell lines were maintained in Dulbecco’s modified Eagle’s medium (DMEM) (Trace Biosciences, Australia) supplemented with 10% foetal bovine serum (FBS), 10 mM sodium bicarbonate, penicillin (100 IU/mL), streptomycin (100 μg/mL), and glutamine (4 mM). The non-cancer MCF10A cell line was cultured in DMEM:F12 (1:1) cell culture media, 5% heat inactivated horse serum, supplemented with penicillin (50 IU/mL), streptomycin (50 μg/mL), 20 mM Hepes, L-glutamine (2 mM), epidermal growth factor (20 ng/mL), hydrocortisone (500 ng/mL), cholera toxin (100 ng/mL), and insulin (10 μg/mL). The AhR reporter cell line HT29-Lucia™ (Invivogen, United States) was maintained in DMEM supplemented with 10% heat inactivated FBS, L-glutamine (2 mM), penicillin (100 IU/mL), streptomycin (100 μg/mL), 100 μg/mL Normocin™, and 100 μg/mL of the selective antibiotic Zeocin™. All cell lines were purchased from the American Type Culture Collection (ATCC), except for A2780 and A431 which were from the European Collection of Authenticated Cell Cultures (ECACC), and SJ-G2 cell line which was from Dr Mary Danks, St Jude Children’s Research hospital, Memphis, TN.
(§3) Cells in logarithmic growth were transferred to 96-well plates. Cytotoxicity was determined by plating cells in duplicate in 100 μL medium at a density of 2,500–4,000 cells/well in 96 well plates. On day 0, (24 h after plating) when the cells were in logarithmic growth 100 μL medium with or without the test agent was added to each well. After 72 h drug exposure growth inhibitory effects were evaluated using the MTT (3-[4,5-dimethylthiazol-2-yl]-2,5-diphenyltetrazolium bromide) assay with absorbance read at 540 nm. An eight-point dose response curve was produced, using MS Excel software. From these dose-response curves, the GI50 value was calculated, representing the drug concentration at which cell growth is 50% inhibited based on the difference between the optical density values on day 0 and those at the end of drug exposure ([Bradshaw et al., 2008]; [Zhang et al., 2009]). Each data point was conducted in duplicate and the mean ± S.E.M. calculated from four to five replicates (n = 4 or 5), which were performed on separate occasions and separate cell line passages. Where shown, significant test results were determined using T-test analysis at p < 0.01 and p < 0.05 with a two tail distribution.

A431 (vulva/skin) cells = experiment: MTT growth inhibition assay (72 h)
Description: as §1, §2, §3

BE2-C (neuronal) cells = experiment: MTT growth inhibition assay (72 h); conditions: Neuron
Description: as §1, §2, §3

BT20 breast cancer cells = experiment: MTT growth inhibition assay (72 h)
Description: as §1, §2, §3

[1] = system: BT474 breast cancer cells; experiment: MTT growth inhibition assay (72 h)
Description: as §1, §2, §3

Du145 (prostate) cells = experiment: MTT growth inhibition assay (72 h)
Description: as §1, §2, §3

H460 (lung) cells = experiment: MTT growth inhibition assay (72 h)
Description: as §1, §2, §3

HT29 (colorectal) cells = experiment: MTT growth inhibition assay (72 h)
Description: as §1, §2, §3

[2] = system: MCF-7 breast cancer cells; experiment: MTT growth inhibition assay (72 h)
Description: as §1, §2, §3

[3] = system: MCF10A normal breast cells; experiment: MTT growth inhibition assay (72 h)
Description: as §1, §2, §3

[4] = system: MDA-MB-231 breast cancer cells; experiment: MTT growth inhibition assay (72 h); conditions: MDA-MB-231, Breast (TN)
Description: as §1, §2, §3

[5] = system: MDA-MB-468 breast cancer cells; experiment: MTT growth inhibition assay (72 h); conditions: MDA-MB-468, Breast (TN)
Description: as §1, §2, §3

MIA (pancreas) cells = experiment: MTT growth inhibition assay (72 h)
Description: as §1, §2, §3

SJ-G2 (brain) cells = experiment: MTT growth inhibition assay (72 h); conditions: SJ-G2, Brain (GBM)
Description: as §1, §2, §3

[6] = system: SKBR3 breast cancer cells; experiment: MTT growth inhibition assay (72 h)
Description: as §1, §2, §3

T47D breast cancer cells = experiment: MTT growth inhibition assay (72 h); conditions: Breast (ER/PR)
Description: as §1, §2, §3

U87 (brain) cells = experiment: MTT growth inhibition assay (72 h); conditions: U87, Brain (GBM)
Description: as §1, §2, §3

[7] = system: ZR-75-1 breast cancer cells; experiment: MTT growth inhibition assay (72 h); conditions: ZR-75-1, Breast (ER/PR)
Description: as §1, §2, §3

[8] = system: broad panel of cancer cell lines and non-cancer breast cell line MCF10A; experiment: MTT growth inhibition: GI50 ranges and selectivity across the cell line panel
Description: as §1, §2, §3

[9] = Homo sapiens, A-431, A431, Skin (ER)
[10] = Homo sapiens, BT-20, BT20, Breast (TN)
[11] = Homo sapiens, BT-474, BT474, Breast (ER/PR/HER2)
[12] = Homo sapiens, NCI-H460, H460, Lung (ER)
[13] = Homo sapiens, HT-29, HT29, Colon
[14] = Homo sapiens, MCF7, MCF-7, Breast (ER)
[15] = Homo sapiens, SK-BR-3, SKBR3, Breast (HER2)

3-Chloro-7H-benzo[de]benzo[4,5]imidazo[2,1-a]isoquinolin-7-one (10a) and 4-chloro-7H-benzo[de]benzo[4,5]imidazo[2,1-a]isoquinolin-7-one (10b) [Compound 10]
GI50 (A2780 (ovary) cells): 4.6 ± 0.25 µM | GI50 (A431 (vulva/skin) cells; A431, Skin (ER)): 0.15 ± 0.036 µM | GI50 (BE2-C (neuronal) cells): 7 ± 0.23 µM | GI50 (BT20 breast cancer cells; BT20, Breast (TN)): 0.27 ± 0.12 µM | GI50 ([1]; BT474, Breast (ER/PR/HER2)): 0.56 ± 0.42 µM | GI50 (Du145 (prostate) cells): > 50 µM | GI50 (H460 (lung) cells; H460, Lung (ER)): 5.7 ± 1.48 µM | GI50 (HT29 (colorectal) cells; HT29, Colon): 2.9 ± 0.18 µM | GI50 ([2]; MCF-7, Breast (ER)): 0.14 ± 0.045 µM | GI50 [3]: 4.2 ± 0.38 µM | GI50 [4]: 29 ± 10.3 µM | GI50 [5]: 0.0056 ± 0.0017 µM | GI50 (MIA (pancreas) cells): 9.8 ± 3.1 µM | GI50 (SJ-G2 (brain) cells): 4.8 ± 0.44 µM | GI50 ([6]; SKBR3, Breast (HER2)): 0.061 ± 0.024 µM | GI50 (T47D breast cancer cells): 0.18 ± 0.019 µM | GI50 (U87 (brain) cells): 37 ± 5.8 µM | GI50 [7]: 0.072 ± 0.03 µM | selectivity relative to the normal cell line (fold, range over cell lines) ([8]; A431, MCF-7, T47D, ZR-75-1, SKBR-3, MDA-MB-468, BT20, BT474 vs MCF10A): 7.5 to 750 fold | GI50 ([8]; MCF-7, T47D, ZR-75-1, SKBR-3, MDA-MB-468, BT20, BT474, read-out: GI50 (range over cell lines)): 0.0056 to 0.56 µM | fold more potent than head group substituted analogues 3, 4, 6, 7, 8 and 9 ([8]; across the cell lines examined (Table 1)): > 10 fold

O=c1c2cccc3cccc(c32)c2nc3cc(Cl)ccc3n12 [Compound 4, 11-Chloro-7H-benzo[de]benzo[4,5]imidazo[2,1-a]isoquinolin-7-one]
GI50 (A2780 (ovary) cells; Homo sapiens): 6 ± 0.32 µM | GI50 (A431 (vulva/skin) cells; [9]): 10 ± 2 µM | GI50 (BE2-C (neuronal) cells; Homo sapiens, BE(2)-C): 10 ± 1.7 µM | GI50 (BT20 breast cancer cells; [10]): 28 ± 3 µM | GI50 [1, 11]: > 50 µM | GI50 (Du145 (prostate) cells; Homo sapiens, DU-145): 12 ± 0.33 µM | GI50 (H460 (lung) cells; [12]): 8.2 ± 1.92 µM | GI50 (HT29 (colorectal) cells; [13]): 18 ± 3.2 µM | GI50 [2, 14]: 5.3 ± 0.39 µM | GI50 ([3]; Homo sapiens, MCF-10A): 4.1 ± 0.2 µM | GI50 ([4]; Homo sapiens): 9 ± 1 µM | GI50 ([5]; Homo sapiens): 0.88 ± 0.17 µM | GI50 (MIA (pancreas) cells; Homo sapiens): 31 ± 3.3 µM | GI50 (SJ-G2 (brain) cells; Homo sapiens): 8.8 ± 1.1 µM | GI50 [6, 15]: 0.26 ± 0.07 µM | GI50 (T47D breast cancer cells; Homo sapiens): 8.6 ± 2.2 µM | GI50 (U87 (brain) cells; Homo sapiens): 18 ± 1.8 µM | GI50 ([7]; Homo sapiens): 0.81 ± 0.43 µM | GI50 ([8]; Homo sapiens, read-out: GI50 (range over cell lines and both compounds 3 and 4), ZR-75-1, SKBR3 and MDA-MB-468): 0.26 to 0.88 µM | greatest difference between growth inhibition in breast cancer cells and normal breast cells (fold) ([8]; SKBR3 vs MCF10A): 16 fold

O=c1c2ccccc2cc2[nH]c3ccccc3n12 [Compound 12, Benzo[4,5]imidazo[1,2-b]isoquinolin-11(5H)-one]
GI50 (A2780 (ovary) cells; Homo sapiens): 3 ± 2.1 µM | GI50 (A431 (vulva/skin) cells; [9]): 0.48 ± 0.1 µM | GI50 (BE2-C (neuronal) cells; Homo sapiens, BE(2)-C): 0.24 ± 0.079 µM | GI50 (BT20 breast cancer cells; [10]): 0.16 ± 0.048 µM | GI50 [1, 11]: > 50 µM | GI50 (Du145 (prostate) cells; Homo sapiens, DU-145): > 50 µM | GI50 (H460 (lung) cells; [12]): > 50 µM | GI50 (HT29 (colorectal) cells; [13]): 0.21 ± 0.056 µM | GI50 [2, 14]: 0.12 ± 0.05 µM | GI50 ([3]; Homo sapiens, MCF-10A): 0.54 ± 0.07 µM | GI50 ([4]; Homo sapiens): > 50 µM | GI50 ([5]; Homo sapiens): 0.141 ± 0.074 µM | GI50 (MIA (pancreas) cells; Homo sapiens): 0.62 ± 0.16 µM | GI50 (SJ-G2 (brain) cells; Homo sapiens): 43 ± 10.3 µM | GI50 [6, 15]: 0.2 ± 0.071 µM | GI50 (T47D breast cancer cells; Homo sapiens): 0.164 ± 0.083 µM | GI50 (U87 (brain) cells; Homo sapiens): > 50 µM | GI50 ([7]; Homo sapiens): 0.17 ± 0.023 µM

O=c1c2cccc3cccc(c4n1Cc1ccccc1N=4)c32 [Compound 13, 7H,9H-benzo[4,5]isoquinolino[1,2-b]quinazolin-7-one]
GI50 (A2780 (ovary) cells; Homo sapiens): > 50 µM | GI50 (A431 (vulva/skin) cells; [9]): 43 ± 4.4 µM | GI50 (BE2-C (neuronal) cells; Homo sapiens, BE(2)-C): 42 ± 1.5 µM | GI50 (BT20 breast cancer cells; [10]): > 50 µM | GI50 [1, 11]: > 50 µM | GI50 (Du145 (prostate) cells; Homo sapiens, DU-145): > 50 µM | GI50 (H460 (lung) cells; [12]): > 50 µM | GI50 (HT29 (colorectal) cells; [13]): > 50 µM | GI50 [2, 14]: 32 ± 1.9 µM | GI50 ([3]; Homo sapiens, MCF-10A): 38 ± 1.2 µM | GI50 ([4]; Homo sapiens): > 50 µM | GI50 ([5]; Homo sapiens): 36 ± 3.8 µM | GI50 (MIA (pancreas) cells; Homo sapiens): 38 ± 1 µM | GI50 (SJ-G2 (brain) cells; Homo sapiens): 56 ± 3.7 µM | GI50 [6, 15]: 47 ± 2.7 µM | GI50 (T47D breast cancer cells; Homo sapiens): 40 ± 3.3 µM | GI50 (U87 (brain) cells; Homo sapiens): > 50 µM | GI50 ([7]; Homo sapiens): 35 ± 1 µM
